Values joined by “and” are separate entries in the source; they are usually repeats but may differ in a detail not shown here. Equal values may be shown once.
Columns and labels:
[1] = In vitro dissolution assay (modified USP 4 flow cell), Compound I samples; assay type: physicochemical; conditions: water and acetonitrile (8:2), 37° C., UV 275 nm, hemihydrate
Experimental: (§1) The equipment used for this procedure is a modified USP 4, the major differences being: 1. low volume cell. 2. stirred cell. 3. retaining filters which are adequate at retaining sub micron material. The total run time is 40 minutes. 2.5 mg of drug (weigh proportionally more formulated material).
(§2) Flow Cell Description: Swinnex filter assemblies obtained from Millipore, having 0.2 micron Cellulose Nitrate membranes. (Millipore, Mass.) as internal filters. The internal volume of the cell is approximately 2 ml. A Small PTFE stirrer customized to fit the Swinnex assembly (Radleys Lab Equipment Halfround Spinvane F37136) is used. The dissolution medium at a flow rate of 5 ml/min is used. The whole set up is placed at a thermostat of 37° C. The drug concentration is measured by passing the eluent through a UV detector having a flow cell dimension of 10 mm. The UV detection is carried out at an appropriate wavelength for the drug.
The experimentation is designed to evaluate drug dissolution rate. As such it is unlikely with poorly soluble drugs, and with water as the dissolution medium, that 100% of the drug will dissolve in the 40 minute duration of the test. To determine the extent of drug solubility over this period one collects all 200 ml of solution that elutes from the dissolution cell.
In vitro dissolution rates of samples 1.1, 1.2 and 1.3 were determined using the protocol described in the experimental section. The dissolution medium was a mixture of water and acetonitrile (8:2), and the wavelength used for drug detection 275 nm.

[2] = In vitro dissolution assay (modified USP 4 flow cell), Compound II samples; assay type: physicochemical; conditions: 0.1M HCl, 37° C., UV 244 nm
Experimental: as §1, §2
The experimentation is designed to evaluate drug dissolution rate. As such it is unlikely with poorly soluble drugs, and with water as the dissolution medium, that 100% of the drug will dissolve in the 40 minute duration of the test. To determine the extent of drug solubility over this period one collects all 200 ml of solution that elutes from the dissolution cell. Using a conventional UV spectrophotometer, this solution is compared against a reference solution of 2.5 or 4 mg of active agent dissolved in a suitable medium.
In vitro dissolution rates of samples 2.1, 2.2, 2.3, 2.4, 2.5 and 2.6 were determined using the protocol described in the experimental section. The dissolution medium was 0.1M HCl, and the wavelength used for drug detection 244 nm. An unmilled lot of Compound II was used for comparison.

Compound | % Drug Dissolved 10 min ([1]; 10 min) | % Drug Dissolved 20 min ([1]; 20 min) | % Drug Dissolved 30 min ([1]; 30 min) | % Drug Dissolved 40 min ([1]; 40 min) | % Drug Dissolved 10 min ([2]; 10 min) [%] | % Drug Dissolved 20 min ([2]; 20 min) [%] | % Drug Dissolved 30 min ([2]; 30 min) [%] | % Drug Dissolved 40 min ([2]; 40 min) [%]
6-Acetyl-3,4-dihydro-2,2-dimethyl-trans(+)-4-(4-fluorobenzoylamino)-2H-benzo[b]pyran-3-ol hemihydrate [Compound I] | 17.4% and 12.1% | 24.3% and 18.2% | 29.4% and 23.2% | 33.8% and 27.8% |  |  |  | 
CC[C@H](NC(=O)c1c(O)c(-c2ccccc2)nc2ccccc12)c1ccccc1.Cl [Compound II, 3-Hydroxy-2-phenyl-N-[(1S)-1-phenylpropyl]-4-quinolinecarboxamide monohydrochloride] |  |  |  |  | 3.8 | 6.3 | 8.5 | 10.7
